{"source": "PubChem BioAssay AID1963838", "about": "(Molecular Pharmacology Branch, DTP, NCI, 2024);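 further: spheroids exposed to compounds for seven days before readout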", "test_system": "855422-203-R-J1-PDC complex spheroid viability", "assay": "Anticancer human tumor 855422-203-R-J1-PDC patient-derived bladder carcinoma cell line growth inhibition [POLQ]", "settings": "for IC50: curve of first compound; for viability, T/C: stronger effect = lower value", "experimental": "Multicellular complex tumor spheroid response to Polymerase (POL) inhibitors (novobiocin, ART-558, RP6685) in combination with a variety of drugs and investigational agents in selected tumor cell lines\nThe POL inhibitors (novobiocin, ART-558, and RP6685) were evaluated both individually and in combination with standard of care and investigational anticancer small molecules within a complex spheroid model of solid tumors. . Complex spheroids include a stromal component modeled by human endothelial cells (HUVEC) and fibroblasts modeled by human mesenchymal stem cells (MSCs). The concentration ranges selected for each drug and investigational agent were based upon clinically achievable concentrations if the clinical Cmax of the agent was known.\nCompounds. The drugs and investigational agents: novobiocin (NSC847541), ART-558 (NSC835418), RP-6685 (NSC848927), peposertib (NSC802822), ceralasertib (NSC780249), elimusertib (NSC800525), camonsertib (NSC841442), AZD-1390 (NSC803789), olaparib (NSC753686), talazoparib (NSC767125), rucaparib (NSC756644), sotorasib (NSC818433), MRTX-1133 (NSC836407), SN-38 (NSC673596), topotecan (NSC609699), epotoside (NSC141540), doxorubicin (NSC123127), gemcitabine (NSC613327), 5-fluorouracil (NSC19893), paclitaxel (NSC125973), vemurafenib (NSC761431), MSA-2 (NSC828583), SN-011 (NSC837082), adavosertib (NSC754352), prexasertib (NSC758257), carboplatin (NSC241240) and oxaliplatin (NSC266046), were obtained from the National Cancer Institute (NCI) Developmental Therapeutics Program Chemical Repository (21). The FDA-approved anticancer drug set is available from the Developmental Therapeutics Program at https://dtp.cancer.gov/organization/dscb/obtaining/. […] The stock solutions were prepared in dimethyl sulfoxide (DMSO, Sigma-Aldrich, St. Louis, MO, cat. D2650), except for the platinum compounds which were prepared in saline (Quality Biological, Gaithersburg, MD, cat. 114-055-101), at 800-fold the tested concentration and stored at -70 degrees C prior to their use. All drugs and investigational agents were tested over a range starting from a high concentration at or near the clinical Cmax and decreasing in half-log increments. If the clinical Cmax for an agent had not been determined, the highest concentration tested was 10 microM, except for SN-38, which was tested at a high concentration of 1 microM.\nCell Culture. All cells were maintained in an incubator at 37 degrees C and 5% CO2 with 95% humidity. The PDC lines were cultured according to standard operating procedures established by the NCI PDMR (https://pdmr.cancer.gov). Table 3 of the manuscript, lists the cell lines along with the number of the three cell types plated to form the mct-spheroids and media for tumor cell growth. After thawing, all PDC lines, except 997537-175-T-J1-PDC and 415267-285-R-J2-PDC, were cultured in Matrigel-coated flasks prepared with a working solution of 1X Ham's F-12 nutrient mix, without supplementation (Thermo Fisher Scientific, cat. 11765054), 100 U/mL penicillin-streptomycin (Thermo Fisher Scientific, cat. 15140122), and 2.5% Matrigel (Corning Inc., Corning, NY, cat. 354248) for the first three passages. The two PDC lines 997537-175-T-J1-PDC and 415267-285-R-J2-PDC were cultured on uncoated flasks. The 857933-349-R-J2-PDC line was cultured in 6C/Colon 1B media containing advanced DMEM/F-12 (Thermo Fisher Scientific, cat. 12634028), 10 mM HEPES (Thermo Fisher Scientific, cat. 15630080), 1X GlutaMAX supplement (Thermo Fisher Scientific, cat. 35050061), 0.1 mg/mL primocin (InvivoGen, San Diego, CA, cat. ant-pm-2), 10% defined fetal bovine serum, heat inactivated (HyClone Laboratories Inc., Logan, UT, cat. SH30070.03HI), 50% L-WRN conditioned media (ATCC, cat. CRL-3276), 1.25 mM N-Acetyl-L-cysteine (Sigma-Aldrich, cat. A9165), 10 mM nicotinamide (Sigma-Aldrich, cat. N0636), 1X B-27 supplement (Thermo Fisher Scientific, cat. 17504044), 1X N-2 supplement (Thermo Fisher Scientific, cat. […]"}
{"smiles": "CC(C)n1c(=O)n(C)c2cnc3cc(F)c(-c4ccc(OCCCN5CCCCC5)nc4)cc3c21", "note": "+ Cc1cccc(N(C)C(=O)C2C(O)CCN2c2nc(C)cc(C(F)(F)F)c2C#N)c1", "values": [{"measurement": "IC50", "setting": "second compound 0.0316 µM", "result": "> 10", "unit": "µM"}, {"measurement": "IC50", "setting": "second compound 0.1 µM", "result": "> 10", "unit": "µM"}, {"measurement": "IC50", "setting": "second compound 0.316 µM", "result": "> 10", "unit": "µM"}, {"measurement": "IC50", "setting": "second compound 1 µM", "result": "> 10", "unit": "µM"}, {"measurement": "IC50", "setting": "second compound 3.16 µM", "result": "> 10", "unit": "µM"}, {"measurement": "IC50", "setting": "second compound 10 µM", "result": 6.79, "unit": "µM"}, {"measurement": "viability, T/C", "setting": "second compound 0.0316 µM, first compound 0.0316 µM", "result": 110, "unit": "%"}, {"measurement": "viability, T/C", "setting": "second compound 0.0316 µM, first compound 0.1 µM", "result": 113, "unit": "%"}, {"measurement": "viability, T/C", "setting": "second compound 0.0316 µM, first compound 0.316 µM", "result": 97.1, "unit": "%"}, {"measurement": "viability, T/C", "setting": "second compound 0.0316 µM, first compound 1 µM", "result": 84.5, "unit": "%"}, {"measurement": "viability, T/C", "setting": "second compound 0.0316 µM, first compound 3.16 µM", "result": 87.9, "unit": "%"}, {"measurement": "viability, T/C", "setting": "second compound 0.0316 µM, first compound 10 µM", "result": 57.6, "unit": "%"}, {"measurement": "viability, T/C", "setting": "second compound 0.1 µM, first compound 0.0316 µM", "result": 96.1, "unit": "%"}, {"measurement": "viability, T/C", "setting": "second compound 0.1 µM, first compound 0.1 µM", "result": 104, "unit": "%"}, {"measurement": "viability, T/C", "setting": "second compound 0.1 µM, first compound 0.316 µM", "result": 95.4, "unit": "%"}, {"measurement": "viability, T/C", "setting": "second compound 0.1 µM, first compound 1 µM", "result": 85.8, "unit": "%"}, {"measurement": "viability, T/C", "setting": "second compound 0.1 µM, first compound 3.16 µM", "result": 91.8, "unit": "%"}, {"measurement": "viability, T/C", "setting": "second compound 0.1 µM, first compound 10 µM", "result": 56.3, "unit": "%"}, {"measurement": "viability, T/C", "setting": "second compound 0.316 µM, first compound 0.0316 µM", "result": 111, "unit": "%"}, {"measurement": "viability, T/C", "setting": "second compound 0.316 µM, first compound 0.1 µM", "result": 104, "unit": "%"}, {"measurement": "viability, T/C", "setting": "second compound 0.316 µM, first compound 0.316 µM", "result": 99.6, "unit": "%"}, {"measurement": "viability, T/C", "setting": "second compound 0.316 µM, first compound 1 µM", "result": 87.4, "unit": "%"}, {"measurement": "viability, T/C", "setting": "second compound 0.316 µM, first compound 3.16 µM", "result": 85.1, "unit": "%"}, {"measurement": "viability, T/C", "setting": "second compound 0.316 µM, first compound 10 µM", "result": 60, "unit": "%"}, {"measurement": "viability, T/C", "setting": "second compound 1 µM, first compound 0.0316 µM", "result": 99.2, "unit": "%"}, {"measurement": "viability, T/C", "setting": "second compound 1 µM, first compound 0.1 µM", "result": 92.6, "unit": "%"}, {"measurement": "viability, T/C", "setting": "second compound 1 µM, first compound 0.316 µM", "result": 109, "unit": "%"}, {"measurement": "viability, T/C", "setting": "second compound 1 µM, first compound 1 µM", "result": 94.1, "unit": "%"}, {"measurement": "viability, T/C", "setting": "second compound 1 µM, first compound 3.16 µM", "result": 86.4, "unit": "%"}, {"measurement": "viability, T/C", "setting": "second compound 1 µM, first compound 10 µM", "result": 56.2, "unit": "%"}, {"measurement": "viability, T/C", "setting": "second compound 3.16 µM, first compound 0.0316 µM", "result": 109, "unit": "%"}, {"measurement": "viability, T/C", "setting": "second compound 3.16 µM, first compound 0.1 µM", "result": 101, "unit": "%"}, {"measurement": "viability, T/C", "setting": "second compound 3.16 µM, first compound 0.316 µM", "result": 112, "unit": "%"}, {"measurement": "viability, T/C", "setting": "second compound 3.16 µM, first compound 1 µM", "result": 97.5, "unit": "%"}, {"measurement": "viability, T/C", "setting": "second compound 3.16 µM, first compound 3.16 µM", "result": 89.3, "unit": "%"}, {"measurement": "viability, T/C", "setting": "second compound 3.16 µM, first compound 10 µM", "result": 56, "unit": "%"}, {"measurement": "viability, T/C", "setting": "second compound 10 µM, first compound 0.0316 µM", "result": 95.9, "unit": "%"}, {"measurement": "viability, T/C", "setting": "second compound 10 µM, first compound 0.1 µM", "result": 97.8, "unit": "%"}, {"measurement": "viability, T/C", "setting": "second compound 10 µM, first compound 0.316 µM", "result": 99.5, "unit": "%"}, {"measurement": "viability, T/C", "setting": "second compound 10 µM, first compound 1 µM", "result": 94.2, "unit": "%"}, {"measurement": "viability, T/C", "setting": "second compound 10 µM, first compound 3.16 µM", "result": 81.4, "unit": "%"}, {"measurement": "viability, T/C", "setting": "second compound 10 µM, first compound 10 µM", "result": 33.9, "unit": "%"}]}
